This note sets out measurements from patent publication US11339130B1 (Blade Therapeutics, Inc., priority 2016, dated 2022).

Like-named read-outs stand apart in the source and are kept apart here. Bounds are passed on as bounds.

Assay [1] concerns the target T1, Human Calpain 9/NS1 (Homo sapiens, UniProt O14815).
T1 sequence (O14815 1-690): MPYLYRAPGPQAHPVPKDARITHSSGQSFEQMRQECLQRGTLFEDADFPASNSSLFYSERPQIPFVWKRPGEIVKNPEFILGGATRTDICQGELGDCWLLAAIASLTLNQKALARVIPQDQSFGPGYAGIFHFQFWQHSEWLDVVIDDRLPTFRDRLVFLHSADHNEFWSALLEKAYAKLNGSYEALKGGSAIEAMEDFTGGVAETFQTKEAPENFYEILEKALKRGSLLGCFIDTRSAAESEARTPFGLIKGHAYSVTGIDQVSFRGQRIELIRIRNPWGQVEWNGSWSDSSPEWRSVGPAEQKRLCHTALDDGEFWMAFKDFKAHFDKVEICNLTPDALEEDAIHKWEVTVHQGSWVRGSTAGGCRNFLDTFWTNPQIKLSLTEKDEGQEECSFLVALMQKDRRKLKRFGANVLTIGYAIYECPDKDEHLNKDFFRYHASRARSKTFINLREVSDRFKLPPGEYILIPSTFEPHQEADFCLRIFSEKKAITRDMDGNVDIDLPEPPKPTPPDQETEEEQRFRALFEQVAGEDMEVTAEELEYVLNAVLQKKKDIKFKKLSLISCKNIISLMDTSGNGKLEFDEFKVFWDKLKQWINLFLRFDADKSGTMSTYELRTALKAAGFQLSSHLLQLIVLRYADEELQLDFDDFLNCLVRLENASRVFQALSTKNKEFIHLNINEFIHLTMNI
T1 sequence (P04632 1-268 partner): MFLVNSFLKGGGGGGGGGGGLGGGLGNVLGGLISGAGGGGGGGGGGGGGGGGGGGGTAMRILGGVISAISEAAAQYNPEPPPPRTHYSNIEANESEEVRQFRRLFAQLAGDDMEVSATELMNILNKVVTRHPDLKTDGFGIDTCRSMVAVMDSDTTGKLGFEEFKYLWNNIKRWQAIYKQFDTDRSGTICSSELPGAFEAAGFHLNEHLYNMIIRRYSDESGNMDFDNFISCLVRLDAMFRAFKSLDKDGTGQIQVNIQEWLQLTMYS
In words: Calpain inhibition continuous fluorescence (FRET) assay, Human Calpain 9/NS1. The following applies: read-out: Human Calpain 9/NS1 IC50. The class given is biochemical. The procedure, abridged:
(§1)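 Fluorescence increase from the cleaved 5-FAM/QXL 520 substrate, read at 490/520 nm, gave activity. Calcium was supplied with the substrate to activate the enzyme in situ after a 25C enzyme-inhibitor preincubation, and IC50s were fit from initial slopes.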

Assay [2] addresses T2, Human Calpain 1/NS1 (Homo sapiens, UniProt P07384).
T2 sequence (P07384 1-714): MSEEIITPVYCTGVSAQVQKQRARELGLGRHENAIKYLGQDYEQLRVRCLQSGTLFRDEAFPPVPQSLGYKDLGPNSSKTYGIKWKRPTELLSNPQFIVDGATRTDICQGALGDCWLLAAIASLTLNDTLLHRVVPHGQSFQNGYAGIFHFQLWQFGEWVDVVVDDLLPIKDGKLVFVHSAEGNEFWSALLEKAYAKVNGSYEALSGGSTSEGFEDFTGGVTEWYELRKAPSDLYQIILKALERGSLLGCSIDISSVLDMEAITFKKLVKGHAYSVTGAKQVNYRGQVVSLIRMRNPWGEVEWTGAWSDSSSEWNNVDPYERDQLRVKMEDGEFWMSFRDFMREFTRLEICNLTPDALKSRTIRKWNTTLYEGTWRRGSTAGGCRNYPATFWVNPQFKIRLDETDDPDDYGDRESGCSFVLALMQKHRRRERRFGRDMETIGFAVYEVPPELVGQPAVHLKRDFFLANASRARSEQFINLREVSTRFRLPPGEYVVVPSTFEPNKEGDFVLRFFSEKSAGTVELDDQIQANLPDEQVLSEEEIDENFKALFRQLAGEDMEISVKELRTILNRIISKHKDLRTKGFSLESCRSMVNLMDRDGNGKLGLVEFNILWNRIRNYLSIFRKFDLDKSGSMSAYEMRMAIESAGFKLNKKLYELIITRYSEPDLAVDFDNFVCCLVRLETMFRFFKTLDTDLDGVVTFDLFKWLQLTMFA
T2 sequence (P04632 1-268 partner): T1 sequence (P04632 1-268 partner)
The assay is described as follows: Calpain inhibition continuous fluorescence (FRET) assay, Human Calpain 1/NS1. Type of assay: biochemical. As to conditions: read-out: Human Calpain 1/NS1 IC50. The procedure, abridged: as §1

Assay [3] deals with Calpain activity in SH-SY5Y cells. The assay is described as follows: SH-SY5Y + AMC fluorescence assay (Suc-LLVY-AMC substrate). The class given is cell-based. The following applies: read-out: SH-SY5Y + AMC IC50.
The subject of assay [4] is Calpain activity in SH-SY5Y cells (SBDP-150). In words: SH-SY5Y Spectrin western blot assay (SBDP-150 breakdown product, A23187-induced). Type of assay: cell-based. The following applies: Homo sapiens, SH-SY5Y cells, read-out: SH-SY5Y Spectrin IC50.
Assay [5] has as its target T3, Human Calpain 2/NS1 (Homo sapiens, UniProt P17655).
T3 sequence (P17655 1-700): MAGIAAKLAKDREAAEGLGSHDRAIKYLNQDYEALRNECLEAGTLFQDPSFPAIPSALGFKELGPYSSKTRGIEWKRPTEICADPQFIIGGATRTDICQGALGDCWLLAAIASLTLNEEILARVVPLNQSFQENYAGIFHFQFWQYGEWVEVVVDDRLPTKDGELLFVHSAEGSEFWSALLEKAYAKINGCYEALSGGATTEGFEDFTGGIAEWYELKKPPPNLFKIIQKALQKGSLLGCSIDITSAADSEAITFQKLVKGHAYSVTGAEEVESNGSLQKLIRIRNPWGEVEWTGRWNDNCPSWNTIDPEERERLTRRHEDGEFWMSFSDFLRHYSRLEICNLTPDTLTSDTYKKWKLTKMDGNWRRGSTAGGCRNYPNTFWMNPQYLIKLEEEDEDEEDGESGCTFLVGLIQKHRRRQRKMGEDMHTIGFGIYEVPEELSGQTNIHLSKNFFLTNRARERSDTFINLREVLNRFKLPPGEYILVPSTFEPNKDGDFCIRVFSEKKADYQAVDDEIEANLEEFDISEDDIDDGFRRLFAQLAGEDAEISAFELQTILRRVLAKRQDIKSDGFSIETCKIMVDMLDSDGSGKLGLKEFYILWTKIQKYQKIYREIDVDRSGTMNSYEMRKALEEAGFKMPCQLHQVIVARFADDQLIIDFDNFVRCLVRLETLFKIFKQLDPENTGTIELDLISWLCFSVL
T3 sequence (P04632 1-268 partner): T1 sequence (P04632 1-268 partner)
In words: Calpain inhibition continuous fluorescence (FRET) assay, Human Calpain 2/NS1. Type of assay: biochemical. The following applies: read-out: Human Calpain 2/NS1 IC50. The procedure, abridged: as §1

Where [6] appears, read: A23187-induced SBDP-150, western blot.
Setting [7] is: Column D, A23187-induced SBDP-150.

Regarding `NC(=O)C(=O)C(Cc1ccc(F)cc1)NC(=O)c1nsnc1-c1ccccc1` (stereo not drawn) [Compound 464, N-(4-amino-1-(4-fluorophenyl)-3,4-dioxobutan-2-yl)-4-phenyl-1,2,5-thiadiazole-3-carboxamide], the IC50 in assay [1] is less than 3 µM; in assay [2], less than 3 µM; in assay [3], less than 10 µM; in assay [4] (setting [6]), less than 10 µM; in assay [5], less than 3 µM.

Take `COc1cccc(-c2nn(C)cc2C(=O)NC(Cc2ccccc2)C(=O)C(N)=O)c1` (stereo not drawn) [Compound 407, N-(4-amino-3,4-dioxo-1-phenylbutan-2-yl)-3-(3-methoxyphenyl)-1-methyl-1H-pyrazole-4-carboxamide]: the IC50 in assay [1] was less than 3 µM; in assay [2] it was less than 3 µM; in assay [3], 10 to 25 µM; in assay [4] (setting [6]), 10 to 25 µM; in assay [5], less than 3 µM.

Take `Cc1nc(-c2cccc(F)c2F)c(C(=O)NC(Cc2ccccc2)C(=O)C(N)=O)o1` (stereo not drawn) [Compound 361, N-(4-amino-3,4-dioxo-1-phenylbutan-2-yl)-4-(2,3-difluorophenyl)-2-methyloxazole-5-carboxamide]: the IC50 was less than 3 µM in assay [1]; less than 3 µM in assay [2]; less than 10 µM in assay [3]; less than 10 µM in assay [4] (setting [6]); less than 3 µM in assay [5].

Take `Cn1nc(C(=O)N[C@@H](Cc2ccccc2)C(=O)C(N)=O)c(-c2ccccc2)n1` [Compound 259, (S)—N-(4-amino-3,4-dioxo-1-phenylbutan-2-yl)-2-methyl-5-phenyl-2H-1,2,3-triazole-4-carboxamide]: the IC50 in assay [1] (Column C) is less than 3 µM; in assay [2] (Column A) it was less than 3 µM; in assay [3] (Column E), 10 to 25 µM; in assay [4] (setting [7]), less than 10 µM; in assay [5] (Column B) it was less than 3 µM.

With `Cc1nc(-c2ccccc2)c(C(=O)N[C@@H](Cc2ccccc2)C(=O)C(N)=O)o1` [Compound 26, (S)—N-(4-amino-3,4-dioxo-1-phenylbutan-2-yl)-2-methyl-4-phenyloxazole-5-carboxamide], the IC50 in assay [1] (Column C) is less than 3 µM; in assay [2] (Column A), less than 3 µM; in assay [3] (Column E) it was less than 10 µM; in assay [4] (setting [7]), less than 10 µM; in assay [5] (Column B), less than 3 µM.

As to `Cc1cc(C(=O)NC(C=O)Cc2ccccc2)n(-c2ccc(C(F)(F)F)cn2)n1` (stereo not drawn) [Compound 399, 3-methyl-N-(1-oxo-3-phenylpropan-2-yl)-1-(5-(trifluoromethyl)pyridin-2-yl)-1H-pyrazole-5-carboxamide], the IC50 in assay [1] is 3 to 10 µM; in assay [2] it was less than 3 µM; in assay [3] it was greater than 25 µM; in assay [4] (setting [6]) it was greater than 25 µM; in assay [5], less than 3 µM.

On to `Cc1cc(C(=O)NC(Cc2ccccc2)C(=O)C(N)=O)n(-c2ncccc2F)n1` (stereo not drawn) [Compound 348, N-(4-amino-3,4-dioxo-1-phenylbutan-2-yl)-1-(3-fluoropyridin-2-yl)-3-methyl-1H-pyrazole-5-carboxamide], for which the IC50 is less than 3 µM in assay [1]; less than 3 µM in assay [2]; less than 10 µM in assay [3]; greater than 25 µM in assay [4] (setting [6]); less than 3 µM in assay [5].

In the case of `Cn1cc(C(=O)NC(C(=O)C(N)=O)c2ccc3ccccc3c2)c(-c2ccccc2F)n1` (stereo not drawn) [Compound 579, N-(3-amino-1-(naphthalen-2-yl)-2,3-dioxopropyl)-3-(2-fluorophenyl)-1-methyl-1H-pyrazole-4-carboxamide], the IC50 in assay [1] was less than 3 µM; in assay [2], less than 3 µM; in assay [3], less than 10 µM; in assay [4] (setting [6]) it was greater than 25 µM; in assay [5] it was less than 3 µM.

With `Cc1cc(C(=O)N[C@@H](Cc2ccccc2)C(=O)C(N)=O)n(-c2ccc3ccccc3n2)n1` [Compound 15, (S)—N-(4-amino-3,4-dioxo-1-phenylbutan-2-yl)-3-methyl-1-(quinolin-2-yl)-1H-pyrazole-5-carboxamide], the IC50 in assay [1] (Column C) is less than 3 µM; in assay [2] (Column A), less than 3 µM; in assay [3] (Column E), 10 to 25 µM; in assay [4] (setting [7]) it was less than 10 µM; in assay [5] (Column B) it was less than 3 µM.

Regarding `NC(=O)C(=O)C(Cc1ccccc1)NC(=O)c1cn(C(F)F)nc1-c1ccccn1` (stereo not drawn) [Compound 550, N-(4-amino-3,4-dioxo-1-phenylbutan-2-yl)-1-(difluoromethyl)-3-(pyridin-2-yl)-1H-pyrazole-4-carboxamide], the IC50 in assay [1] was less than 3 µM; in assay [2], less than 3 µM; in assay [3] it was 10 to 25 µM; in assay [4] (setting [6]), greater than 25 µM; in assay [5], less than 3 µM.

For the compound `Cn1cc(C(=O)N[C@@H](Cc2c[nH]c3ccccc23)C(=O)C(N)=O)c(-c2ccccc2)n1` [Compound 423, (S)—N-(4-amino-1-(1H-indol-3-yl)-3,4-dioxobutan-2-yl)-1-methyl-3-phenyl-1H-pyrazole-4-carboxamide], the IC50 in assay [1] is less than 3 µM; in assay [2], less than 3 µM; in assay [3], less than 10 µM; in assay [4] (setting [6]), less than 10 µM; in assay [5], less than 3 µM.

For `Cc1nc(-c2ccccc2F)c(C(=O)N[C@H](Cc2ccccc2)C(=O)C(N)=O)o1` [Compound 592, (R)—N-(4-amino-3,4-dioxo-1-phenylbutan-2-yl)-4-(2-fluorophenyl)-2-methyloxazole-5-carboxamide], the IC50 in assay [1] was less than 3 µM; in assay [2] it was less than 3 µM; in assay [3], less than 10 µM; in assay [4] (setting [6]) it was 10 to 25 µM; in assay [5], less than 3 µM.
